The source of these data is US10633399B2, “Functionalized aminobenzoboroxoles” (Channel Therapeutics, Inc., priority 2015, dated 2020).

Broadly, the melting point is the temperature, or range, at which the solid turns liquid. One may read the viability as a read-out of living cells in per cent, often relative to untreated cells. One may read the IC50 as the concentration that gives 50% inhibition. Low values mean greater potency, high ones weaker potency.

Series [1] can be described thus: Cell viability assay (MTT), MIAPaCa-2. The settings on record: human, MIAPaCa-2 pancreatic cancer cells.
Method: (§1) After synthesizing the functionalized aminobenzoboroxoles, these molecules were evaluated for their general cytotoxicity against breast cancer cell lines (MDA-MB-231) and pancreatic cancer cell lines (MIAPaCa-2).
(§2) Human pancreatic cancer MIAPaCa-2 cells were purchased from ATCC and were maintained in D-MEM supplemented with 10% FBS, 2.5% horse serum, and 1% Penicillin Streptomycin in a humidified atmosphere of 5% CO2 at 37° C. Human breast cancer MDA-MB-231 cells were purchased from ATCC and were maintained in D-MEM supplemented with 10% FBS and 1% Penicillin Streptomycin in a humidified atmosphere of 5% CO2 at 37° C. […] DMSO was added as a negative control. To determine the cell viability, MTT (3-(4,5-dimethylthiazolyl-2)-2,5-diphenyltetrazolium bromide) was dissolved in PBS solution (5 mg/mL) and 10 μL was added to each well and incubated. After 4 hours, 100 μL of SDS (sodium dodecyl sulfate) solution (1 g in 10 mL of 0.01 N HCl) was added to solubilize formazan precipitate and incubated for an additional 4 hours. The absorbance of each well was then measured using a microplate reader at 570 nm. The absorbance of control wells was defined as 100% viability and all of the tested compounds were expressed as percentage relative to the control.
A short description of series [2]: Cell viability assay (MTT), MDA-MB-231. The settings on record: human, MDA-MB-231 breast cancer cells.
Method: as §1, §2
Series [3] relates to Human pancreatic cancer MIAPaCa-2 cells. In words: Cell viability assay (MTT), MIAPaCa-2. The settings on record: for activity against MIAPaCa-2 cell lines: 12.5 μM concentration; for IC50: Homo sapiens, MIA PaCa-2.
Method: as §1, §2
For series [4], the system named is Human breast cancer MDA-MB-231 cells. In words: Cell viability assay (MTT), MDA-MB-231. The settings on record: Homo sapiens, MDA-MB-231.
Method: as §1, §2

SMILES strings stand for the structures.

Consider `OB1OCc2ccc(NCc3ccccc3)cc21` [Compound 2], for which the melting point was 123 to 125 °C. In series [1], the viability at 72 h, 12.5 µM was found to be 76.6% and the viability at 72 h, 50 µM amounted to 34.5%. In series [2], the viability at 72 h, 12.5 µM is 73.7% and the viability at 72 h, 50 µM was 80.2%.
The matching figures for `OB1OCc2ccc(NCc3ccc(F)cc3)cc21` [Compound 3]: 135 to 137 °C, 87.2%, 73.6%, 84% and 91.7%.
On the same counts, the results for `OB1OCc2ccc(NCc3ccc(F)cc3F)cc21` [Compound 4] are 136 to 138 °C, 90.9%, 63.9%, 80.2% and 90%.
The matching figures for `OB1OCc2ccc(NCc3ccc(Cl)cc3Cl)cc21` [Compound 5]: 106 to 108 °C, 86.4%, 65.8%, 75.2% and 75.7%.
The compound `OB1OCc2ccc(NCc3ccc(Cl)c(Cl)c3)cc21` [Compound 6] had a melting point of 128 to 130 °C. Also, in series [1], the viability at 72 h, 12.5 µM worked out at 95.3% and the viability at 72 h, 50 µM was 62.6%. For the same compound, in series [2], the viability at 72 h, 12.5 µM worked out at 69.2% and the viability at 72 h, 50 µM came to 68.7%.
On the same counts, the results for `O=C(O)c1ccc(CNc2ccc3c(c2)B(O)OC3)cc1` [Compound 7] are 221 to 223 °C, 71.3%, 80.6%, 100% and 124%.
Regarding `N#Cc1ccc(CNc2ccc3c(c2)B(O)OC3)cc1` [Compound 8], the melting point lay in the range of 141 to 143 °C. Also, in series [1], the viability at 72 h, 12.5 µM was 80.8% and the viability at 72 h, 50 µM came to 47%. Also, in series [2], the viability at 72 h, 12.5 µM came out at 77.7% and the viability at 72 h, 50 µM was 109%.
On the same counts, the results for `Cc1ccc(CNc2ccc3c(c2)B(O)OC3)cc1` [Compound 9] are 148 to 150 °C, 57.2%, 45.9%, 84.1% and 82.8%.
`COc1ccc(CNc2ccc3c(c2)B(O)OC3)cc1` [Compound 10, 6-N-(p-methoxybenzyl)aminobenzoboroxole] came in with a melting point of 122 to 124 °C. Further, in series [1], the viability at 72 h, 12.5 µM turned out to be 51.8% and the viability at 72 h, 50 µM was 37.9%. Moreover, in series [2], the viability at 72 h, 12.5 µM was 90.2% and the viability at 72 h, 50 µM turned out to be 90%.
`CN(C)c1ccc(CNc2ccc3c(c2)B(O)OC3)cc1` [Compound 11] returned a melting point of 122 to 124 °C. Moreover, in series [1], the viability at 72 h, 12.5 µM amounted to 72.1% and the viability at 72 h, 50 µM turned out to be 78.4%. For the same compound, in series [2], the viability at 72 h, 12.5 µM came out at 97.6% and the viability at 72 h, 50 µM amounted to 71.1%.
`CCCCN(CCCC)c1ccc(CNc2ccc3c(c2)B(O)OC3)cc1` [Compound 12]: the melting point was in the range of 94 to 96 °C. Besides, in series [1], the viability at 72 h, 12.5 µM was determined as 89.1% and the viability at 72 h, 50 µM amounted to 58.2%. In series [2], the viability at 72 h, 12.5 µM is 106% and the viability at 72 h, 50 µM was 103%.
The matching figures for `OB1OCc2ccc(NCc3ccc(N4CCCCC4)cc3)cc21` [Compound 13]: 65 to 67 °C, 92%, 49.5%, 93.9% and 90.7%.
The matching figures for `OB1OCc2ccc(NCc3ccc4c(c3)OCO4)cc21` [Compound 14]: 136 to 138 °C, 88.9%, 69%, 88.5% and 102%.
`O=C(Nc1ccc([N+](=O)[O-])c(C(F)(F)F)c1)c1ccc(CNc2ccc3c(c2)B(O)OC3)cc1` [Compound 15] returned a melting point of 117 to 119 °C.
Take `OB1OCc2ccc(NCc3cc4ccccc4nc3Cl)cc21` [Compound 16]: the melting point is 209 to 211 °C. For the same compound, in series [3], the “activity against MIAPaCa-2 cell lines” value is listed as “showed activity” and the IC50 is 8.3 µM. Further, in series [1], the viability at 72 h, 12.5 µM was found to be 28.2% and the viability at 72 h, 50 µM was determined as 28.6%. Also, in series [2], the viability at 72 h, 12.5 µM was found to be 44.3% and the viability at 72 h, 50 µM was found to be 44.8%. For the same compound, in series [4], the midpoint of inhibition, the IC50, lay at 11.5 µM.
As to `O=NN(Cc1ccccc1)c1ccc2c(c1)B(O)OC2` [Compound 17], the melting point is 108 to 110 °C. For the same compound, in series [1], the viability at 72 h, 12.5 µM turned out to be 83.5% and the viability at 72 h, 50 µM was 51.5%. In addition, in series [2], the viability at 72 h, 12.5 µM was 121% and the viability at 72 h, 50 µM is 115%.
On the same counts, the results for `COc1ccc(CN(N=O)c2ccc3c(c2)B(O)OC3)cc1` [Compound 18, 6-N-nitroso-N-(p-methoxybenzyl)amino-benzoboroxole] are 109 to 111 °C, 83%, 61%, 119% and 123%.
The matching figures for `O=NN(Cc1ccc(F)cc1)c1ccc2c(c1)B(O)OC2` [Compound 19]: 121 to 123 °C, 77.7%, 62.8%, 128% and 108%.
On the same counts, the results for `O=NN(Cc1ccc(F)cc1F)c1ccc2c(c1)B(O)OC2` [Compound 20] are 125 to 127 °C, 70.3%, 70.5%, 122% and 126%.
Turning to `O=NN(Cc1ccc(Cl)cc1Cl)c1ccc2c(c1)B(O)OC2` [Compound 21], the melting point fell in the range of 121 to 123 °C. Moreover, in series [1], the viability at 72 h, 12.5 µM was determined as 95.7% and the viability at 72 h, 50 µM was 69.5%. In series [2], the viability at 72 h, 12.5 µM stood at 134% and the viability at 72 h, 50 µM amounted to 106%.
For `O=NN(Cc1ccc(Cl)c(Cl)c1)c1ccc2c(c1)B(O)OC2` [Compound 22], the melting point is 144 to 147 °C. In series [1], the viability at 72 h, 12.5 µM was 84.8% and the viability at 72 h, 50 µM worked out at 59.9%. In series [2], the viability at 72 h, 12.5 µM was found to be 122% and the viability at 72 h, 50 µM was found to be 146%.
The matching figures for `O=C(Nc1ccccc1)N(Cc1ccccc1)c1ccc2c(c1)B(O)OC2` [Compound 23]: 116 to 118 °C, 49.6%, 30%, 116% and 47%.
In turn, `COc1ccc(CN(C(=O)Nc2ccccc2)c2ccc3c(c2)B(O)OC3)cc1` [Compound 24] showed a melting point of 104 to 106 °C. Moreover, in series [3], the “activity against MIAPaCa-2 cell lines” value is “showed activity” and inhibition was half-maximal at 2.7 µM (IC50). Further, in series [1], the viability at 72 h, 12.5 µM was determined as 22.4% and the viability at 72 h, 50 µM stood at 17.5%. In series [2], the viability at 72 h, 12.5 µM was 63% and the viability at 72 h, 50 µM turned out to be 53.9%. In series [4], this compound came in with an IC50 of 11.9 µM.
Turning to `O=C(NC1CCCCC1)N(Cc1ccccc1)c1ccc2c(c1)B(O)OC2` [Compound 25], the melting point fell in the range of 125 to 127 °C. Further, in series [1], the viability at 72 h, 12.5 µM is 64.8% and the viability at 72 h, 50 µM turned out to be 39.4%. In addition, in series [2], the viability at 72 h, 12.5 µM is 80.9% and the viability at 72 h, 50 µM came out at 128%.
Consider `COc1ccc(CN(C(=O)NC2CCCCC2)c2ccc3c(c2)B(O)OC3)cc1` [Compound 26], for which the melting point is 156 to 158 °C. In series [1], the viability at 72 h, 12.5 µM is 45.5% and the viability at 72 h, 50 µM came out at 25.1%. Also, in series [2], the viability at 72 h, 12.5 µM worked out at 96.3% and the viability at 72 h, 50 µM came out at 60.8%.
In the case of `O=C(NCCCl)N(Cc1ccccc1)c1ccc2c(c1)B(O)OC2` [Compound 27], the melting point fell in the range of 138 to 140 °C. Also, in series [1], the viability at 72 h, 12.5 µM came to 104% and the viability at 72 h, 50 µM came to 61.8%. Besides, in series [2], the viability at 72 h, 12.5 µM was 135% and the viability at 72 h, 50 µM came to 101%.
In turn, `COc1ccc(CN(C(=O)NCCCl)c2ccc3c(c2)B(O)OC3)cc1` [Compound 28] gave a melting point of 134 to 136 °C. In addition, in series [1], the viability at 72 h, 12.5 µM worked out at 74.9% and the viability at 72 h, 50 µM is 60.4%. For the same compound, in series [2], the viability at 72 h, 12.5 µM was found to be 95.8% and the viability at 72 h, 50 µM was 63.2%.
